Source: patent publication US5137905A, “Heterocyclic acetylenic amines having central nervous system activity” (The Upjohn Company, priority 1991, dated 1992)
Read-outs that look alike come from different tables or passages of the source.

Assays:
HCl-induced writhing = assay: HCl writhing protection (analgesic activity); type: in vivo, CF1 mice; conditions: Mus musculus, sc; ED50; s.c. in CF1 mice, 30 min before i.p. 0.15% HCl; read-out: CNS Id (ED50 mg/kg) HCl Writh. Protect
Protocol: For determination of analgesic activity, the test compound was injected subcutaneously into a group of four CF1 mice. Thirty minutes later the mice were injected i.p. with 0.15% HCl, 10 ml./kg. Mice were then placed in plastic boxes and observed for fifteen minutes to record the number of animals failing to writhe.

CNS cholinergic receptor [1] = conditions: tritiated quinuclidine benzylate (QNB); read-out: CNS Cholinergic Receptor Binding Assays K1 QNB
CNS cholinergic receptor [2] = assay: CNS cholinergic receptor binding, oxotremorine M ligand; conditions: tritiated oxotremorine M; read-out: CNS Cholinergic Receptor Binding Assays K1 Oxotremorine
[3] = tested on: oxotremorine-induced body tremor; assay: Oxotremorine antagonist assay (body tremor); type: in vivo, mice; conditions: Mus musculus, ip; read-out: Oxot. Antagonist Tremor (ED50)
Protocol: Oxotremorine antagonist assays were performed on groups of six mice weighing 18-22 g. Each was dosed intraperitoneally with the test compound prepared in 0.25% methylcellulose and were placed in individual cages. Twenty minutes later the mice were injected subcutaneously with 0.5 mg/kg of oxotremorine dissolved in saline. Ten minutes later the mice were scored for body tremor. Doses of the compound under study began at 100 mg/kg and were decreased at a 0.5 log interval until no responders were obtained.

[4] = tested on: amnesia produced by scopolamine; assay: Antagonism of scopolamine-induced amnesia, passive avoidance; type: in vivo; conditions: i.p. test compound, 1 mg/kg s.c. scopolamine hydrobromide, mouse step through passive avoidance
Excerpt: For antagonism of amnesia produced by scopolamine a one trial, step through passive avoidance paradigm was used. In this procedure a mouse was placed on a square platform adjoining a darkened chamber. The mouse could enter the chamber through a hole above the platform. Following placement on the platform, the mouse was enclosed by a clear plexiglas cover which mildly restricted movement, limiting the animal to turning around and partial rearing. A sliding door was opened after this, exposing the entrance to the chamber. A timer was started at the same time the door was opened, in order to record latency to enter the chamber. Upon complete entry into the darkened box, the door was closed behind the mouse and a 1 mA, 2 sec, direct current shock applied to the feet of the mouse through the grid floor. The mouse was immediately removed from the chamber and returned to a 24 hr group holding cage.
Drug testing involved intraperitoneal injection of the test compound followed 15 min later by subcutaneous injection of 1 mg/kg scopolamine hydrobromide. […] The latency for each mouse to enter the chamber was recorded, with a cut-off at 180 sec.
Median group latencies to enter the chamber during both training and testing were recorded and a Wilcoxon rank sum test applied to data comparing the parallel "scopolamine only" group with all drug combination groups on testing. […]

[5] = versus prior oxotremorine compounds; U.S. Pat. No. 3,925,411; cited from earlier work
cholinergic mechanism = conditions: extremely low doses; cited from earlier work

SMILES | ED50 (HCl-induced writhing) [mg/kg] | Ki (CNS cholinergic receptor [1]) [nM] | Ki (CNS cholinergic receptor [2]) [nM] | ED50 [3] [mg/kg] | antagonism of amnesia produced by scopolamine [4] | half life [5] | tremors and spasticity in laboratory animals (cholinergic mechanism)
Cn1ccn(CC#CCN2CCCC2)c1=O [Compound 36, 1,3-Dihydro-1-methyl-3-[4-(1-pyrrolidinyl)-2-butynyl]-2H-imidazol-2-one] | 1.3 | 510 | 7 | > 10 | the most active | – | –
NC(=O)N1CCC[C@@H]1C#CCN1CCCC1 [Compound 51H, (R)-2-[3-(1-pyrrolidinyl)-1-propynyl]-1-pyrrolidinecarboxamide] | > 50 | > 10000 | 440 | > 100 | – | – | –
N#CN1CCC[C@@H]1C#CCN1CCCC1 [Compound 51I, (R)-2-[3-(1-pyrrolidinyl)-1-propynyl]-1-pyrrolidinecarbonitrile] | 25 | > 10000 | 310 | > 30 | – | – | –
COC(=O)N1CCC[C@@H]1C#CCN1CCCC1 [Compound 51J, (R)-Methyl 2-[3-(1-pyrrolidinyl)-1-propynyl]-1-pyrrolidinecarboxylate] | 11 | 460 | 57 | > 100 | – | – | –
COC(=O)N1CCC[C@H]1C#CCN1CCCC1 [Compound 51K, (S)-Methyl 2-[3-(1-pyrrolidinyl)-1-propynyl]-1-pyrrolidinecarboxylate] | > 50 | 220 | 130 | 97 | – | – | –
CCOC(=O)N1CCC[C@@H]1C#CCN1CCCC1 [Compound 51L, (R)-Ethyl 2-[3-(1-pyrrolidinyl)-1-propynyl]-1-pyrrolidinecarboxylate] | > 50 | 760 | 50 | > 100 | – | – | –
O=C1CCCN1CCC#CCN1CCCC1 [N-(5-pyrrolidino-3-pentynyl)-pyrrolidin-2-one] | – | – | – | – | – | increased half life over prior oxotremorine compounds | –
O=C1CCCN1CC#CCN1CCCC1 [oxotremorine, 1-[4-(1-pyrrolidinyl-2-butynyl)-2-pyrrolidinone]] | – | – | – | – | – | – | induces tremors and spasticity in laboratory animals
